According to patent publication US20120178738A1, “DIBENZO [B,F] [1,4]OXAZAPINE COMPOUNDS” (ARYX THERAPEUTICS, INC., priority 2007, published 2012):
Where two headings read alike, the source gives them in different places.

Experiments:
5-HT2A receptor = biological target: T1, 5-HT2A receptor (Rattus norvegicus, UniProt P14842); assay: cell-based
T1 construct: Eight strips of tissue (0.5 cm long) were cut. and were mounted in 10 ml organ baths; tissue Charles River Laboratories; host or cells: rat aorta strips, endothelium removed
Protocol: The rat aorta (approximately 7 cm) was isolated and removed from the animal (male Sprague Dawley rat, Charles River Laboratories, Hollister, Calif.). The endothelium was removed mechanically. Eight strips of tissue (0.5 cm long) were cut. and were mounted in 10 ml organ baths kept at 37° C. with Krebs solution (composition in mM: NaCl (118.2), KCl (4.6), CaCl2 (2.5), MgSO4 (1.2), KH2PO4 (1.2), NaHCO3 (24.8) and dextrose (10.0)) that was constantly aerated with carbogen gas (95% O2/5% CO2) to obtain a pH of 7.4. The tissues were subjected to a resting tension of 2 g (3 times, 15 minutes apart, equilibrated in Krebs solution). The tissues were then washed 15 minutes later. Ten minutes later, the tissues were then exposed to 0.1 μM phenylephrine. At the maximal effect, 1 μM acetylcholine was added to confirm the absence of endothelium and then washed twice, 2 minutes apart.
Contractions were recorded as changes in tension from baseline and expressed as a percentage of the maximum response of the agonist (5-HT) concentration-effect curve. Agonist concentration-response curves were fitted using a nonlinear iterative fitting program (GraphPad Prism) using the relationship of Parker and Waud (Parker, R. B. and Waud, D. R. (1971). Pharmacological estimation of drug-receptor dissociation constants. Statistical evaluation. I. Agonists. J. Pharmacol. Exp. Ther., 177, 1-12). Agonist potency was expressed as EC50 (molar concentration of agonist producing 50% of the maximum response). Concentration-ratios (CRs) were determined from EC50 values in the presence and absence of antagonist and antagonist affinity estimates (pKB and pA2 values) were determined. All data are expressed as mean±s.e. mean.

[1] = biological target: T2, human D2s dopamine receptors (Homo sapiens, UniProt P14416); assay: hD2S receptor radioligand binding ([3H]spiperone); conditions: pKi reported on a scale of 1 through 5
T2 construct: expressed in transfected cells; host or cells: Chinese hamster ovary cells (membranes)
Protocol: (§1) Consistent with standard competition radioligand binding assays, the methodology was based on displacement of radioligand from tissues (or cell lines) bearing the receptor of interest (Cheng, Y. and Prusoff, W. H. (1973). Biochem. Pharmacol. 22, 3099-3108). The measurements were based on the binding of a single concentration of radiolabeled ligand in the presence of various concentrations of unlabeled ligand.
(§2) Tissues (or cellular plasma membrane fractions) were incubated in the presence of radioligand at equilibrium and in the presence of a range of concentrations of the test compounds (which were non-radiolabeled), and the displaced radioligand was separated from the membranes by filtration. Nonspecific binding was assessed by measuring displacement of the radioligand in the presence of a compound known to block binding of the radioligand to the receptor. Finally, the concentration-response relationship for radioligand displacement (corrected for non-specific binding) was used to assess binding of the test compound to the receptor.

[2] = biological target: T3, human D2L dopamine receptors (Homo sapiens, UniProt P14416); assay: hD2L receptor radioligand binding ([3H]spiperone)
T3 construct: expressed in transfected cells; host or cells: insect Sf9 cells (membranes)
Protocol: as §1, §2

human 5HT1A receptors = biological target: T4, human 5HT1A receptors (Homo sapiens, UniProt P08908); assay: h5-HT1A receptor radioligand binding ([3H]8OH-DPAT); conditions: pKi reported on a scale of 1 through 5
T4 construct: expressed in transfected cells; host or cells: Chinese hamster ovary cells (membranes)
T4 sequence (P08908 1-422): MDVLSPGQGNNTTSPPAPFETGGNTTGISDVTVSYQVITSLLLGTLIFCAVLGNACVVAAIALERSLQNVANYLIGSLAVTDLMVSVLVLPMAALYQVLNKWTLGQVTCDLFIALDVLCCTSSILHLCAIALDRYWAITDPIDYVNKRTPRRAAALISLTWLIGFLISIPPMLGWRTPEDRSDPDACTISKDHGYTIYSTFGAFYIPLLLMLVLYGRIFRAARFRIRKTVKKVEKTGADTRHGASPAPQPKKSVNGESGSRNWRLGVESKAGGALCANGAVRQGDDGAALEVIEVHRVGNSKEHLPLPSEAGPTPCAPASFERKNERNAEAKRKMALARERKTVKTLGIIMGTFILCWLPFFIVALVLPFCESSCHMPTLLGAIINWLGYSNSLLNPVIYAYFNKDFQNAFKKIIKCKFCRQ
Protocol: as §1, §2

human 5HT2C receptors = biological target: T5, human 5HT2C receptors (Homo sapiens, UniProt P28335); assay: h5-HT2C receptor radioligand binding ([3H]Mesulergine); conditions: pKi reported on a scale of 1 through 5
T5 construct: expressed in transfected cells; host or cells: human embryo kidney cells (membranes)
T5 sequence (P28335 33-458): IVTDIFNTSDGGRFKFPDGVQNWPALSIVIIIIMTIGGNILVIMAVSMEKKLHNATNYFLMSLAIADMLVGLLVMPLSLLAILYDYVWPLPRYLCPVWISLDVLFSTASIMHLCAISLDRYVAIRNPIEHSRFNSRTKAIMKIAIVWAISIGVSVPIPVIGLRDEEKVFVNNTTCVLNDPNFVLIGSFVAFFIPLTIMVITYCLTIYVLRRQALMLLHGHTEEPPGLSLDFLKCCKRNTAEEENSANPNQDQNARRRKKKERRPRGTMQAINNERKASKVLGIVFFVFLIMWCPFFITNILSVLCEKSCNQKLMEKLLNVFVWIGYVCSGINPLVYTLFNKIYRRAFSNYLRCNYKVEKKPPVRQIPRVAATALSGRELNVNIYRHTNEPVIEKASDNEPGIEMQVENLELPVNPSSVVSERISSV
Protocol: The measurements were based on the binding of a single concentration of radiolabeled ligand in the presence of various concentrations of unlabeled ligand.
as §2

human M3 receptors = biological target: T6, human M3 receptors (Homo sapiens, UniProt P20309); assay: hM3 receptor radioligand binding ([3H]NMS)
T6 construct: expressed in transfected cells; host or cells: Chinese hamster ovary cells (membranes)
Protocol: as §1, §2

human H1 receptors = biological target: T7, human H1 receptors (Homo sapiens, UniProt P35367); assay: hH1 receptor radioligand binding ([3H]Pyrilamine); conditions: pKi reported on a scale of 1 through 5
T7 construct: expressed in transfected cells; host or cells: Chinese hamster ovary cells (membranes)
Protocol: as §1, §2

human 5HT7 receptors = biological target: T8, human 5HT7 receptors (Homo sapiens, UniProt P34969); assay: h5-HT7 receptor radioligand binding ([3H]5-CT)
T8 construct: expressed in transfected cells; host or cells: Chinese hamster ovary cells (membranes)
Protocol: as §1, §2

human M1 receptors = biological target: T9, human M1 receptors (Homo sapiens, UniProt P11229); assay: hM1 receptor radioligand binding ([3H]NMS); conditions: pKi reported on a scale of 1 through 5
T9 construct: expressed in transfected cells; host or cells: Chinese hamster ovary cells (membranes)
T9 sequence (P11229 1-460): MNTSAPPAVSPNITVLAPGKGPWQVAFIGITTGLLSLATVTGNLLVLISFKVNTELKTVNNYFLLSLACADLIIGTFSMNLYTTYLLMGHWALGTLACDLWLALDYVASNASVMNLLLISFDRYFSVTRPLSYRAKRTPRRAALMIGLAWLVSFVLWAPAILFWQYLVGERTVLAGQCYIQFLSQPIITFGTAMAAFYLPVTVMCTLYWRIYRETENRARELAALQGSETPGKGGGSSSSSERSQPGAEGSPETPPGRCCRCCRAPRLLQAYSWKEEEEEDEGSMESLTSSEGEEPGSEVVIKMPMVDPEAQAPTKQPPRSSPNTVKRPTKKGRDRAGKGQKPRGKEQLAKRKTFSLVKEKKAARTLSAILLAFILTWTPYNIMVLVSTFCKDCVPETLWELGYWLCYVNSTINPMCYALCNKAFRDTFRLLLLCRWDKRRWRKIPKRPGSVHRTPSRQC
Protocol: as §1, §2

[3] = read-out: 5HT2A (pKb) (converted)
[4] = pKi reported on a scale of 1 through 5, read-out: D2L (pKi) (converted)
[5] = pKi reported on a scale of 1 through 5, read-out: M3 (pKi) (converted)
[6] = pKi reported on a scale of 1 through 5, read-out: 5HT7 (pKi) (converted)

T3 sequence (P14416 whole entry): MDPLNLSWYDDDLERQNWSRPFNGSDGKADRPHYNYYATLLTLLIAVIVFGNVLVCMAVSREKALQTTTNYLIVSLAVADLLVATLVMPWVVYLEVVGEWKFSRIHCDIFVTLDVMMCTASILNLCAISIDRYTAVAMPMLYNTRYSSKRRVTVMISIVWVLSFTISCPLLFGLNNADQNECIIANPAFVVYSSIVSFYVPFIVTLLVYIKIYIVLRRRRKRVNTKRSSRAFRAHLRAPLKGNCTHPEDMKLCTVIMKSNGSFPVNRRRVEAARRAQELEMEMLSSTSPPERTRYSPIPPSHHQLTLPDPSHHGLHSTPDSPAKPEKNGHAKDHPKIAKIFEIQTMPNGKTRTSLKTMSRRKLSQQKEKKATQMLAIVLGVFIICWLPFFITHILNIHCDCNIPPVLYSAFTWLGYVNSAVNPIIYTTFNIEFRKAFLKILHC
T6 sequence (P20309 whole entry): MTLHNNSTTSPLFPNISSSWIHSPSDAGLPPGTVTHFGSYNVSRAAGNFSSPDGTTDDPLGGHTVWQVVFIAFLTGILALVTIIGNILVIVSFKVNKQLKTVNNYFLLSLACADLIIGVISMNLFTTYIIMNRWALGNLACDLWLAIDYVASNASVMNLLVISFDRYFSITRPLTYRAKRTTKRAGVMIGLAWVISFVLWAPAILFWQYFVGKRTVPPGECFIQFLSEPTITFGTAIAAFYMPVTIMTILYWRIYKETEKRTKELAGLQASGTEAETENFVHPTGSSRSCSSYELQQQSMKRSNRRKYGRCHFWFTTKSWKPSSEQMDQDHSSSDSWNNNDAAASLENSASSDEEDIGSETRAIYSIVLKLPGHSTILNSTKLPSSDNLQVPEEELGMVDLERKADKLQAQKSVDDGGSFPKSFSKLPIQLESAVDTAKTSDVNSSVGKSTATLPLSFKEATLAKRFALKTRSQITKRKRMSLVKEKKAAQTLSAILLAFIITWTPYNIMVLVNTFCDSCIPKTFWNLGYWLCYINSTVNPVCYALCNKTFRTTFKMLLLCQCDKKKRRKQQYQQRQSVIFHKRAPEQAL
T8 sequence (P34969 whole entry): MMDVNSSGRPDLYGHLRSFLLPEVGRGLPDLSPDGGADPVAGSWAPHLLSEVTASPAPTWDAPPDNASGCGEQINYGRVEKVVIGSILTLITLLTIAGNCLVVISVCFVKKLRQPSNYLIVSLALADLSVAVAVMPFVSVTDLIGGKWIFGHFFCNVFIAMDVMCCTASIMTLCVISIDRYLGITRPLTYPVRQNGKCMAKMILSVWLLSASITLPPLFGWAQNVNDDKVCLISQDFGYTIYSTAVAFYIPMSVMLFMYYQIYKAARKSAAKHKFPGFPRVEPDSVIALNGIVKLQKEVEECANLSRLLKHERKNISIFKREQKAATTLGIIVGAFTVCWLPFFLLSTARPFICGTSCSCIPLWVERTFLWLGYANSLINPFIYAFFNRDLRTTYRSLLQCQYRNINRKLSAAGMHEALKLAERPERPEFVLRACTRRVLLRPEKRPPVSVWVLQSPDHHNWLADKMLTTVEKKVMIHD
T7 sequence (P35367 whole entry): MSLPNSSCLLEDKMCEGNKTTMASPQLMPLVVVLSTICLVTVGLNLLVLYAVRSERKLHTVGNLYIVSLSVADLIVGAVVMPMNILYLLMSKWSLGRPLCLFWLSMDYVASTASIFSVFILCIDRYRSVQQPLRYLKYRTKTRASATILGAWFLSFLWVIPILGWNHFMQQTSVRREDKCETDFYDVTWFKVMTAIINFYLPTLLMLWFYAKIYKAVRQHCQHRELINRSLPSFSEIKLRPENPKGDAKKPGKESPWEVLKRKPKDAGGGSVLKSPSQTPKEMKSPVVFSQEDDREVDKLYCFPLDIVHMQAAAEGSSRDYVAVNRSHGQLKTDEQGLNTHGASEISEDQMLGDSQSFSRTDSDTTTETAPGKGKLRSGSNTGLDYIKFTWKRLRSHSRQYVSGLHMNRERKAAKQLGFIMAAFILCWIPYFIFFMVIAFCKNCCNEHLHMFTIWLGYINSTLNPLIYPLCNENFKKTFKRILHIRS
T1 sequence (P14842 whole entry): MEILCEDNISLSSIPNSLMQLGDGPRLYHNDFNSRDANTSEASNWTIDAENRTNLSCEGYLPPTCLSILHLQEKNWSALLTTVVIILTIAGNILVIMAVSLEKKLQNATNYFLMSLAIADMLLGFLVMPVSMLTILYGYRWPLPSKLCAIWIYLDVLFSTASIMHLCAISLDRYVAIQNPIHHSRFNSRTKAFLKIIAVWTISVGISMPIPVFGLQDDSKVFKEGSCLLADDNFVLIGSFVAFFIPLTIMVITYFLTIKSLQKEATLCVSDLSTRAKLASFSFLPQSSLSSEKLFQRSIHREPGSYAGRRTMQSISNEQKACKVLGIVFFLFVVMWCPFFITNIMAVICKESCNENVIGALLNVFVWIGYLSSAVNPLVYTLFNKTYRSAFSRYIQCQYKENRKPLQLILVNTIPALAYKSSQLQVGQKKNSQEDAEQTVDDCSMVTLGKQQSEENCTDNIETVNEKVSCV
T2 sequence (P14416 1-414 isoform P14416-2): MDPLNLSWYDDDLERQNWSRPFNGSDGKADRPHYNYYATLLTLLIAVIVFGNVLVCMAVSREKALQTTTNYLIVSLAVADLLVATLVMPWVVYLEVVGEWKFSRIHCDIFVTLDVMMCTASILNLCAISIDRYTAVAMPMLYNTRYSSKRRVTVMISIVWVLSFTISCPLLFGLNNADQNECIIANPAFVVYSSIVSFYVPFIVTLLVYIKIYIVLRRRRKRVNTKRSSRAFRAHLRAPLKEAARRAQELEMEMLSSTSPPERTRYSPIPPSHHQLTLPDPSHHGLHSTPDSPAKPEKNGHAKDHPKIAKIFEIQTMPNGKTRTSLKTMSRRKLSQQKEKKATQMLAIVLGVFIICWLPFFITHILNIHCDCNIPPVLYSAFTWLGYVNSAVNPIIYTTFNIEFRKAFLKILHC

Row | Structure (SMILES) | Kb (5-HT2A receptor; [3]) | Ki [1] | Ki [2, 4] | Ki (human 5HT1A receptors) | Ki (human 5HT2C receptors) | Ki (human M3 receptors; [5]) | Ki (human H1 receptors) | Ki (human 5HT7 receptors; [6]) | Ki (human M1 receptors) | Kb (5-HT2A receptor) | Ki [2] | Ki (human M3 receptors) | Ki (human 5HT7 receptors)
1 | C[C@H](CC(C)(C)O)OC(=O)C[C@H]1CN(C2=Nc3cc(Cl)ccc3Oc3ccccc32)CCN1 [Compound ED, (R)-4-hydroxy-4-methylpentan-2-yl 2-((S)-4-((E)-8-chlorodibenzo[b,f][1,4]oxazepin-11-yl)piperazin-2-yl)acetate] | 3.16 to 9.77 nM | 631 to 2450 nM | 631 to 2450 nM | 10 to 97.7 nM | < 9.77 nM | > 10000 nM | 10 to 97.7 nM | 631 to 1550 nM | 5010 to 9770 nM |  |  |  | 
2 | O=C(C[C@H]1CN(C2=Nc3cc(Cl)ccc3Oc3ccccc32)CCN1)NCCOCCO [FN, (S,E)-2-(4-(8-chlorodibenzo[b,f][1,4]oxazepin-11-yl)piperazin-2-yl)-N-(2-(2-hydroxyethoxy)ethyl)acetamide] | 3.16 to 9.77 nM | 631 to 2450 nM | 631 to 2450 nM | 10 to 97.7 nM | 10 to 97.7 nM | > 10000 nM | 10 to 97.7 nM | 631 to 1550 nM | > 10000 nM |  |  |  | 
3 | O=C(C[C@H]1CN(C2=Nc3cc(Cl)ccc3Oc3ccccc32)CCN1)NC[C@@H]1CCCO1 [FR, 2-((S)-4-((E)-8-chlorodibenzo[b,f][1,4]oxazepin-11-yl)piperazin-2-yl)-N-(((S)-tetrahydrofuran-2-yl)methyl)acetamide] | 3.16 to 9.77 nM | 158 to 617 nM | 158 to 617 nM | 10 to 97.7 nM | 10 to 97.7 nM | > 10000 nM | 10 to 97.7 nM | 631 to 1550 nM | > 10000 nM |  |  |  | 
4 | COCCCNC(=O)C[C@H]1CN(C2=Nc3cc(Cl)ccc3Oc3ccccc32)CCN1 [GD, (S,E)-2-(4-(8-chlorodibenzo[b,f][1,4]oxazepin-11-yl)piperazin-2-yl)-N-(3-methoxypropyl)acetamide] | 10 to 30.9 nM | 631 to 2450 nM | 631 to 2450 nM | 10 to 97.7 nM | 10 to 97.7 nM | > 10000 nM | 10 to 97.7 nM | 631 to 1550 nM | > 10000 nM |  |  |  | 
5 | COCCNC(=O)C[C@H]1CN(C2=Nc3cc(Cl)ccc3Oc3ccccc32)CCN1 [FC, (S,E)-2-(4-(8-chlorodibenzo[b,f][1,4]oxazepin-11-yl)piperazin-2-yl)-N-(2-methoxyethyl)acetamide] | 3.16 to 9.77 nM | 631 to 2450 nM | 631 to 2450 nM | 10 to 97.7 nM | 10 to 97.7 nM | > 10000 nM | 10 to 97.7 nM | 631 to 1550 nM | > 10000 nM |  |  |  | 
6 | O=C(C[C@H]1CN(C2=Nc3cc(Cl)ccc3Oc3ccccc32)CCN1)O[C@@H]1CN2CCC1CC2 [DU, (S)-quinuclidin-3-yl 2-((S)-4-((E)-8-chlorodibenzo[b,f][1,4]oxazepin-11-yl)piperazin-2-yl)acetate] |  | 2510 to 9770 nM |  | 10 to 97.7 nM | 100 to 977 nM |  | 100 to 977 nM |  | 5010 to 9770 nM | > 100 nM | 2510 to 9770 nM | > 10000 nM | 3980 to 9770 nM
